Numbers after ± are expanded uncertainties.
Assay: xn = mol fraction of the nth substance listed
Conditions: 101.3 kPa, Liquid, Vibrating tube method

CCCC[n+]1ccn(C)c1.O=S(=O)([N-]S(=O)(=O)C(F)(F)F)C(F)(F)F + O
mass density [kg/m3]
Conditions	298.2 K	323.21 K
x2 = 0	1437.1 ± 2.6	1413.8 ± 2.6
x2 = 0.0308	1435.7 ± 2.6	–
x2 = 0.0482	–	1411.8 ± 2.5
x2 = 0.0753	1434 ± 2.5	–
x2 = 0.0816	–	1410.5 ± 2.5
x2 = 0.119	–	1408.8 ± 2.4
x2 = 0.1194	1432.2 ± 2.5	–
x2 = 0.1597	–	1407.1 ± 2.4
x2 = 0.1731	1430 ± 2.4	–
x2 = 0.2141	–	1404.5 ± 2.3
x2 = 0.2391	1426.7 ± 2.3	–
x2 = 0.2583	–	1402 ± 2.3

O [water] + CCOS(=O)(=O)[O-].CCn1cc[n+](C)c1
x1 = 1
Conditions	mass density [kg/m3]
318.15 K	990.1 ± 2
323.15 K	988 ± 2
328.15 K	985.7 ± 2
333.15 K	983.2 ± 2
338.15 K	980.5 ± 2
343.15 K	977.8 ± 2

CCCCn1cc[n+](C)c1.F[P-](F)(F)(F)(F)F [1-butyl-3-methylimidazolium hexafluorophosphate] + O
mass density [kg/m3]
Conditions	x2 = 0	x2 = 0.0431	x2 = 0.0982	x2 = 0.1222	x2 = 0.1566	x2 = 0.1873	x2 = 0.2548	x2 = 0.2971
298.15 K	1368.3 ± 2	1366.5 ± 2.1	1363.5 ± 2.1	1362.1 ± 2.1	1360.1 ± 2.1	1358.5 ± 2.1	1355.5 ± 2	1354.1 ± 2
323.15 K	1347.7 ± 2	1345.6 ± 2.1	1342.2 ± 2.1	1340.6 ± 2.1	1338.5 ± 2.1	1336.4 ± 2.1	1332.3 ± 2.1	1329.9 ± 2.1

CCCC[N+](C)(C)C.O=S(=O)([N-]S(=O)(=O)C(F)(F)F)C(F)(F)F [butyltrimethylammonium bis(trifluoromethylsulfonyl)imide] + O
mass density [kg/m3]
Conditions	x2 = 0	x2 = 0.0387	x2 = 0.0765	x2 = 0.1132	x2 = 0.14	x2 = 0.189	x2 = 0.2108	x2 = 0.2322
293.15 K	1399.5 ± 2.6	1398.4 ± 2.5	1397 ± 2.5	1395.3 ± 2.4	1394.1 ± 2.4	1392.4 ± 2.3	1391.8 ± 2.3	1391.2 ± 2.3
298.15 K	1395 ± 2.6	1393.9 ± 2.5	1392.5 ± 2.5	1390.8 ± 2.4	1389.5 ± 2.4	1387.8 ± 2.3	1387.2 ± 2.3	1386.6 ± 2.3
303.15 K	1390.5 ± 2.6	1389.4 ± 2.5	1388 ± 2.5	1386.3 ± 2.4	1385 ± 2.4	1383.2 ± 2.3	1382.5 ± 2.3	1381.8 ± 2.3
308.15 K	1386.1 ± 2.5	1384.9 ± 2.5	1383.5 ± 2.5	1381.9 ± 2.4	1380.6 ± 2.4	1378.7 ± 2.3	1377.8 ± 2.3	1377.1 ± 2.3
313.15 K	1381.6 ± 2.5	1380.5 ± 2.5	1379 ± 2.5	1377.4 ± 2.4	1376.1 ± 2.4	1374.1 ± 2.3	1373.2 ± 2.3	1372.4 ± 2.3
318.15 K	1377.1 ± 2.5	1376 ± 2.5	1374.6 ± 2.5	1372.9 ± 2.4	1371.6 ± 2.4	1369.6 ± 2.3	1368.7 ± 2.3	1367.8 ± 2.3
323.15 K	1372.6 ± 2.5	1371.5 ± 2.5	1370 ± 2.5	1368.4 ± 2.4	1367.1 ± 2.4	1365.1 ± 2.3	1364.1 ± 2.3	1363.2 ± 2.3
328.15 K	1368.2 ± 2.5	1367 ± 2.5	1365.5 ± 2.4	1363.9 ± 2.4	1362.6 ± 2.4	1360.5 ± 2.3	1359.5 ± 2.3	1358.5 ± 2.3
333.15 K	1363.7 ± 2.5	1362.4 ± 2.5	1360.9 ± 2.4	1359.3 ± 2.4	1358 ± 2.4	1355.8 ± 2.3	1354.8 ± 2.3	1353.7 ± 2.3
338.15 K	1359.2 ± 2.5	1357.9 ± 2.5	1356.3 ± 2.4	1354.7 ± 2.4	1353.3 ± 2.4	1351.1 ± 2.3	1350 ± 2.3	1348.7 ± 2.3
343.15 K	1354.8 ± 2.5	1353.4 ± 2.5	1351.8 ± 2.4	1350.2 ± 2.4	1348.7 ± 2.4	1346.4 ± 2.3	1345.1 ± 2.3	1343.8 ± 2.3

Reference: the NIST ThermoML archive (doi:10.1016/j.jct.2009.05.009)
